The record followed here is ChEMBL document CHEMBL3853350 (ACS Med Chem Lett, 2016).

The nature of series [1]: AUC (0 to infinity) in Sprague-Dawley rat plasma at 5 mg/kg administered via oral gavage measured 24 hrs post dose by LC/MS/MS analysis. It counts as ADME, organism-based. Set-up: dose 5 mg/kg, time infinity, route oral.
Series [2] in a line: Fraction unbound in rat plasma at 1 uM after 5 hrs by rapid equilibrium dialysis based LC-MS/MS analysis. The class given is ADME, cell-free.
Series [3] can be described thus: Oral bioavailability in cynomolgus monkey plasma at […] measured 24 hrs post dose by LC/MS/MS analysis. It counts as ADME, organism-based, Macaca fascicularis.
Series [4] is described as follows: Half life in Beagle dog plasma at 0.5 mg/kg, iv by LC/MS/MS analysis. The class given is ADME, organism-based, Canis lupus familiaris.
A short description of series [5]: Fraction unbound in dog plasma at 1 uM after 5 hrs by rapid equilibrium dialysis based LC-MS/MS analysis. The class given is ADME, cell-free, Canis lupus familiaris. (In general: In equilibrium dialysis only unbound substance equilibrates across the membrane.)
The nature of series [6]: Volume of distribution at steady state in CD-1 mouse plasma at 1 mg/kg, iv measured 24 hrs post dose by LC/MS/MS analysis. As to conditions: read-out: Vdss. The class given is ADME, organism-based.
Series [7] is described as follows: AUC (0 to infinity) in cynomolgus monkey plasma at […] administered via oral gavage measured 24 hrs post dose by LC/MS/MS analysis. It counts as ADME, organism-based, Macaca fascicularis. Set-up: dose 2.5 mg/kg, route oral, time infinity.
Series [8] in a line: Cmax in Sprague-Dawley rat plasma at 5 mg/kg administered via oral gavage measured 24 hrs post dose by LC/MS/MS analysis. It counts as ADME, organism-based. Also on record: dose 5 mg/kg, route oral.
Series [9] in a line: Volume of distribution at steady state in Beagle dog plasma at 0.5 mg/kg, iv measured 24 hrs post dose by LC/MS/MS analysis. It counts as ADME, organism-based, Canis lupus familiaris. As to conditions: read-out: Vdss.
Series [10] in a line: Clearance in Beagle dog plasma at 0.5 mg/kg, iv measured 24 hrs post dose by LC/MS/MS analysis. It counts as ADME, organism-based, Canis lupus familiaris.
The nature of series [11]: Fraction unbound in human plasma at 1 uM after 5 hrs by rapid equilibrium dialysis based LC-MS/MS analysis. It counts as ADME, cell-free.
Series [12] deals with Voltage-gated inwardly rectifying potassium channel KCNH2 (Homo sapiens, UniProt Q12809). Nature of the series: Inhibition of human ERG.
Chain of Voltage-gated inwardly rectifying potassium channel KCNH2 (Q12809 whole entry): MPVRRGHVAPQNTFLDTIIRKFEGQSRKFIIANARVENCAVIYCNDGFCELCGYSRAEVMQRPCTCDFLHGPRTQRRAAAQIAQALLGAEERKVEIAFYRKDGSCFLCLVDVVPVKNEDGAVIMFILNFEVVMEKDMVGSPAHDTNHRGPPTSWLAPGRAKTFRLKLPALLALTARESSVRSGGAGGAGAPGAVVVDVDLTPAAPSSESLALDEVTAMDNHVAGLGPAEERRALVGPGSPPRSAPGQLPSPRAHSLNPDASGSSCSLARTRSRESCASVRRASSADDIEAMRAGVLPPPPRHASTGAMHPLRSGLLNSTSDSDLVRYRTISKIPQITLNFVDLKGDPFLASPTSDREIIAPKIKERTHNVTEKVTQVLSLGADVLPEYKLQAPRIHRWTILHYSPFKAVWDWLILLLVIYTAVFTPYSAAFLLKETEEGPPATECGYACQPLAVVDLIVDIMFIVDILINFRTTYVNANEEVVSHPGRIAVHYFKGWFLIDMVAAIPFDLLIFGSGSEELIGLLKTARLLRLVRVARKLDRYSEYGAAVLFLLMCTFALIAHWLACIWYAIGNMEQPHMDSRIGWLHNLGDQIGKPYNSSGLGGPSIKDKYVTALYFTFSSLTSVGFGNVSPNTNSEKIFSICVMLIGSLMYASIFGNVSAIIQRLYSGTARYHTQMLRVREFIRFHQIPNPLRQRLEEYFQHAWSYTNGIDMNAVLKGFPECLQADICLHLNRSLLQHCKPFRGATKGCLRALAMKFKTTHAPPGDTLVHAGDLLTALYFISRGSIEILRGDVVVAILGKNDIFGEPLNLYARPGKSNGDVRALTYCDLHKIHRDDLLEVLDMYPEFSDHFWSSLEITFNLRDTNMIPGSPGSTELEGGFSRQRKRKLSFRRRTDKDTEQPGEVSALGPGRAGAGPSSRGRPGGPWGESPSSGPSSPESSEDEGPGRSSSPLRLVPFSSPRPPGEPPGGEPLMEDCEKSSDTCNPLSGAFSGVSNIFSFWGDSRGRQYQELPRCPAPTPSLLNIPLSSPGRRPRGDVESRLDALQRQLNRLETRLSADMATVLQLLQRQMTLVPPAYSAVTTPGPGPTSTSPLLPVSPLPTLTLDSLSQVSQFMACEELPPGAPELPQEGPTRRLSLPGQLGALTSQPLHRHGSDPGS
A short description of series [13]: Half life in CD-1 mouse plasma at 1 mg/kg, iv by LC/MS/MS analysis. The class given is ADME, organism-based.
The nature of series [14]: Clearance in cynomolgus monkey plasma at 0.5 mg/kg, iv measured 24 hrs post dose by LC/MS/MS analysis. The class given is ADME, organism-based, Macaca fascicularis.
The target in series [15] is Cytochrome P450 3A4 (Homo sapiens, UniProt P08684). Nature of the series: Inhibition of CYP3A4 in human liver microsomes after 5 mins in presence of NADPH by LC-MS/MS analysis. The class given is ADME. In general terms: Liver microsomes are vesicles of endoplasmic reticulum, rich in cytochrome P450 enzymes.
Chain of Cytochrome P450 3A4 (P08684 whole entry): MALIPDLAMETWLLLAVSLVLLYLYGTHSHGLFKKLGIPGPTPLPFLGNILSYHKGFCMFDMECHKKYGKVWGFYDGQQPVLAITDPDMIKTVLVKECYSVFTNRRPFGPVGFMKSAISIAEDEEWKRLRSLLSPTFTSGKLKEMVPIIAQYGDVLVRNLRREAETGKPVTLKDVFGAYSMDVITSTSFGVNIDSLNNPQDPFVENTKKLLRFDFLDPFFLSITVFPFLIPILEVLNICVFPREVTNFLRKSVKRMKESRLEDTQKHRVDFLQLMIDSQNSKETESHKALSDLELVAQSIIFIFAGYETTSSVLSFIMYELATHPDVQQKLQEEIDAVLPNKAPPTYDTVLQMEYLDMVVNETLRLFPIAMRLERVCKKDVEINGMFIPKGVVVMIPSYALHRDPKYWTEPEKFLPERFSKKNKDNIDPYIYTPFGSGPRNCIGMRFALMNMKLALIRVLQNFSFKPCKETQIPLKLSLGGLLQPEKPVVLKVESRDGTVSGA

In the case of `C[C@H](NC(=O)c1c(N)nn2cccnc12)c1cc2cccc(C#Cc3cnn(C)c3)c2c(=O)n1-c1ccccc1` [EGANELISIB], the total exposure AUC(0-inf) in series [1] is 8050 ng·h/mL. The fraction unbound at 5 h, 1 µM in series [2] came out at 0.028; in series [5], 0.028; in [11] it was 0.011. This compound showed a bioavailability at 24 h in series [3] of 31%. Further, the half-life was 6.7 h in series [4] and 3.2 h in [13]. Moreover, the Vd was 0.8 L/kg in series [6] and 1.3 L/kg in series [9]. Moreover, the total exposure AUC(0-inf) at 24 h in series [7] amounted to 4030 ng·h/mL. The compound further yielded a Cmax in series [8] of 2000 nM. The clearance was 2.8 mL/min/kg in [10] and 4.3 mL/min/kg in series [14]. Besides, the values for the IC50 in series [12] and in [15] were more than 10 µM and more than 20 µM, respectively.

By AUC(0-inf) is commonly meant the area under the concentration-time curve extrapolated to infinity. As a reminder, the fraction unbound is the share of the substance not bound to proteins or other matrix. One may read the bioavailability as the share of a dose that reaches the circulation, judged against a reference dose that is usually intravenous. For orientation: half-life means the time in which the quantity being followed falls by half. The Cmax is the highest concentration seen after dosing. What is called clearance is the volume of plasma or blood freed of the substance per unit of time. One may read the IC50 as the concentration at which inhibition is half-maximal.
